Source: paper PMC5107132 (European journal of pharmacology, 2016)

Experiments:
[1] = tested on: Wistar rats; settings: ref Savić et al., 2008; cited from earlier work
[2] = Pharmacokinetic study, plasma and brain concentrations after i.p. injection; settings: rat, 20 min
[3] = In vitro hydrolytic stability study in rat plasma; type: in vitro ADME; settings: for % remaining in plasma (in vitro metabolic stability) / Total plasma concentration (in vitro metabolic stability): rat plasma 37 °C
[4] = target: κ opioid receptor (KOR) (Homo sapiens, UniProt P41145); settings: read-out: Affinity at KOR; ref B. Roth et al., NIMH Psychoactive Drug Screening Program; cited from earlier work
[5] = Plasma protein and brain tissue binding; type: in vitro ADME, rat; settings: rapid equilibrium dialysis
[6] = target: T1, α5β3γ2S GABAA receptors (Rattus norvegicus, UniProt P18508+P19969); settings: read-out: Ki at α5β3γ2 GABAA receptors; ref Savić et al., 2010; cited from earlier work
[7] = target: T2, α5β3γ2 GABAA receptors (Rattus norvegicus, UniProt P18508+P19969); test: Two-electrode voltage clamp in Xenopus oocytes, α5β3γ2; type: cell-based
[8] = target: T3, α2β3γ2 GABAA receptors (Rattus norvegicus, UniProt P18508+P23576); test: Two-electrode voltage clamp in Xenopus oocytes, α2β3γ2; type: cell-based; settings: 200 mg/kg dose
[9] = target: T3, α2β3γ2 GABAA receptors; settings: 100 nM; ref Savić et al., 2010; cited from earlier work
[10] = target: α1β3γ2S GABAA receptors (Rattus norvegicus, UniProt P18508+P62813); settings: read-out: Ki at α1β3γ2 GABAA receptors; ref Savić et al., 2010; cited from earlier work
[11] = target: α2β3γ2S GABAA receptors (Rattus norvegicus, UniProt P18508+P23576); settings: read-out: Ki at α2β3γ2 GABAA receptors; ref Savić et al., 2010; cited from earlier work
[12] = target: T4, α3β3γ2 GABAA receptors (Rattus norvegicus, UniProt P18508+P20236); test: Two-electrode voltage clamp in Xenopus oocytes, α3β3γ2; type: cell-based; settings: 200 mg/kg dose
[13] = target: T2, α5β3γ2 GABAA receptors; settings: 100 nM; ref Savić et al., 2010; cited from earlier work
[14] = tested on: Wistar rats; test: Rotarod test; type: in vivo, rat; settings: 200 mg/kg i.p.; vs. 180 s with control animals; n = 4
[15] = target: α1β3γ2 GABAA receptors (Rattus norvegicus, UniProt P18508+P62813); settings: 100 nM; ref Savić et al., 2010; cited from earlier work
[16] = target: α3β3γ2S GABAA receptors (Rattus norvegicus, UniProt P18508+P20236); settings: read-out: Ki at α3β3γ2 GABAA receptors; ref Savić et al., 2010; cited from earlier work
[17] = target: T4, α3β3γ2 GABAA receptors; settings: 100 nM; ref Savić et al., 2010; cited from earlier work
[18] = target: T1, α5β3γ2S GABAA receptors; test: 3H-flunitrazepam competition binding, α5β3γ2S; settings: ratio of Ki values

C#Cc1ccc2c(c1)C(c1ccccc1F)=N[C@@H](C)c1c(C(=O)OCC)ncn1-2 [SH-053-2′F-S-CH3]
Median incapacitating dose (rotarod) [1]: 219 mg/kg

C#Cc1ccc2c(c1)C(c1ccccc1F)=N[C@H](C)c1c(C(=O)OCC)ncn1-2 [SH-053-2′F-R-CH3]
Brain free (estimated) concentration ([2]; 10 mg/kg i.p.): 29.10 ± 5.14 nmol/kg | Brain total concentration ([2]; 10 mg/kg i.p.): 752.00 ± 132.84 nmol/kg | Plasma free (estimated) concentration ([2]; 10 mg/kg i.p.): 278.60 ± 52.39 nmol/L | Plasma total concentration ([2]; 10 mg/kg i.p.): 406.43 ± 76.45 nmol/L | Brain free (estimated) concentration ([2]; 20 mg/kg i.p.): 38.85 ± 3.39 nmol/kg | Brain total concentration ([2]; 20 mg/kg i.p.): 1003.57 ± 87.55 nmol/kg | Plasma free (estimated) concentration ([2]; 20 mg/kg i.p.): 288.32 ± 47.99 nmol/L | Plasma total concentration ([2]; 20 mg/kg i.p.): 420.63 ± 70.01 nmol/L | Brain free (estimated) concentration ([2]; 30 mg/kg i.p.): 64.40 ± 14.64 nmol/kg | Brain total concentration ([2]; 30 mg/kg i.p.): 1663.84 ± 378.29 nmol/kg | Plasma free (estimated) concentration ([2]; 30 mg/kg i.p.): 380.78 ± 46.73 nmol/L | Plasma total concentration ([2]; 30 mg/kg i.p.): 555.51 ± 68.18 nmol/L | Brain free (estimated) concentration ([2]; 150 mg/kg i.p.): 147.74 ± 37.36 nmol/kg | Brain total concentration ([2]; 150 mg/kg i.p.): 3816.79 ± 965.21 nmol/kg | Plasma free (estimated) concentration ([2]; 150 mg/kg i.p.): 1100.14 ± 186.36 nmol/L | Plasma total concentration ([2]; 150 mg/kg i.p.): 1604.96 ± 271.88 nmol/L | Brain free (estimated) concentration ([2]; 200 mg/kg i.p.): 324.16 ± 89.88 nmol/kg | Brain total concentration ([2]; 200 mg/kg i.p.): 8374.25 ± 2322.03 nmol/kg | Plasma free (estimated) concentration ([2]; 200 mg/kg i.p.): 1876.71 ± 196.63 nmol/L | Plasma total concentration ([2]; 200 mg/kg i.p.): 2737.87 ± 286.86 nmol/L | % remaining in plasma (in vitro metabolic stability) ([3]; 0 min): 100% | Total plasma concentration (in vitro metabolic stability) ([3]; 0 min): 0.5556 µM | % remaining in plasma (in vitro metabolic stability) ([3]; 30 min): 76.64% | Total plasma concentration (in vitro metabolic stability) ([3]; 30 min): 0.4258 ± 0.0042 µM | % remaining in plasma (in vitro metabolic stability) ([3]; 60 min): 62.77% | Total plasma concentration (in vitro metabolic stability) ([3]; 60 min): 0.3487 ± 0.0040 µM | % remaining in plasma (in vitro metabolic stability) ([3]; 120 min): 38.27% | Total plasma concentration (in vitro metabolic stability) ([3]; 120 min): 0.2126 ± 0.0036 µM | % remaining in plasma (in vitro metabolic stability) ([3]; 240 min): 5.24% | Total plasma concentration (in vitro metabolic stability) ([3]; 240 min): 0.0291 ± 0.0023 µM | In vitro metabolic stability during incubation in rat plasma ([3]; rat, plasma): less stable | Ki [4]: 240 nM | Free fraction in brain tissue ([5]; rat brain tissue): 3.87% | Free fraction in plasma ([5]; rat plasma): 68.55% | Ki [6]: 95.2 nM | Estimated potentiation of GABA-mediated currents at α5GABAARs ([7]; approximated from estimated free rat brain concentration, 200 mg/kg i.p.): 280% | Concentration needed to elicit 300% potentiation at α5GABAARs ([7]; read from concentration-response curves of Savić et al., 2010): above 300 nM | Estimated potentiation at α2GABAARs [8]: 171% | % of control current, α2β3γ2 [9]: 124 ± 9% | Ki [10]: 759 nM | Ki [11]: 948 nM | Estimated potentiation at α3GABAARs [12]: 155% | % of control current, α5β3γ2 [13]: 183 ± 7% | Rotarod, time remaining on the rod [14]: 154 ± 26 s | % of control current, α1β3γ2 [15]: 111 ± 2% | Ki [16]: 769 nM | % of control current, α3β3γ2 [17]: 125 ± 8% | Selectivity in binding to α5GABAARs compared to α1-containing GABAA receptors [18]: 8 fold | Selectivity in binding to α5GABAARs compared to α2-containing GABAA receptors [18]: 10 fold
